From the supplement of paper PMC10307832

What was measured:
Assay in all cases: relative viability (nuclei count vs DMSO), 5 days (fraction); higher = more cells survive
Ricolinostat + Lapatinib = compound: O=C(CCCCCCNC(=O)c1cnc(N(c2ccccc2)c2ccccc2)nc1)NO [Ricolinostat] + CS(=O)(=O)CCNCc1ccc(-c2ccc3ncnc(Nc4ccc(OCc5cccc(F)c5)c(Cl)c4)c3c2)o1 [Lapatinib] (partner 2 µM)
Procedure, shortened: (§1)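 Lung cancer cell lines were seeded in 1536-well plates and dosed by pin tool the next day, with either a single drug or a fixed anchor-drug dose combined with five library-drug doses (not always all listed) spaced in √10 steps. Five days later, one step fixed the cells and stained their nuclei (final 0.05% Triton X-100, 1% formaldehyde, 1 ug/ml Hoechst), and nuclei were counted on 4× images. Relative viability is the nuclei count in treated wells divided by the count in vehicle wells, and each value is the median of duplicate plates.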

Ricolinostat + Foretinib = compound: O=C(CCCCCCNC(=O)c1cnc(N(c2ccccc2)c2ccccc2)nc1)NO [Ricolinostat] + COc1cc2c(Oc3ccc(NC(=O)C4(C(=O)Nc5ccc(F)cc5)CC4)cc3F)ccnc2cc1OCCCN1CCOCC1 [Foretinib] (partner 0.25 µM)
Procedure, shortened: as §1

[1] = compound: O=C(CCCCCCNC(=O)c1cnc(N(c2ccccc2)c2ccccc2)nc1)NO [Ricolinostat] + C[C@@H](Oc1cc(-c2cnn(C3CCNCC3)c2)cnc1N)c1c(Cl)ccc(F)c1Cl [Crizotinib] (partner 1 µM)
Procedure, shortened: as §1

TGX 221 + Bortezomib = compound: CC1=CN2C(=O)C=C(N=C2C(=C1)C(C)NC3=CC=CC=C3)N4CCOCC4 [TGX 221] + CC(C)C[C@H](NC(=O)[C@H](Cc1ccccc1)NC(=O)c1cnccn1)B(O)O [Bortezomib] (partner 0.002 µM)
Procedure, shortened: as §1

Cell Line: HCC-15
- relative viability (Ricolinostat + Lapatinib; first compound 0.08 µM): 0.729
- relative viability (Ricolinostat + Lapatinib; first compound 0.253 µM): 0.808
- relative viability (Ricolinostat + Lapatinib; first compound 0.8 µM): 0.854
- relative viability (Ricolinostat + Lapatinib; first compound 2.53 µM): 0.899
- relative viability (Ricolinostat + Foretinib; first compound 0.08 µM): 0.876
- relative viability (Ricolinostat + Foretinib; first compound 0.253 µM): 1.03
- relative viability (Ricolinostat + Foretinib; first compound 0.8 µM): 1.05
- relative viability (Ricolinostat + Foretinib; first compound 2.53 µM): 1.05
- relative viability ([1]; first compound 0.08 µM): 0.775
- relative viability ([1]; first compound 0.253 µM): 0.801
- relative viability ([1]; first compound 0.8 µM): 0.799
- relative viability ([1]; first compound 2.53 µM): 0.84
- relative viability (TGX 221 + Bortezomib; first compound 0.08 µM): 1.02
- relative viability (TGX 221 + Bortezomib; first compound 0.253 µM): 0.953
- relative viability (TGX 221 + Bortezomib; first compound 0.8 µM): 0.93
- relative viability (TGX 221 + Bortezomib; first compound 2.53 µM): 1.04
- relative viability (TGX 221 + Bortezomib; first compound 8 µM): 1.06

Cell Line: HCC-44
- relative viability (Ricolinostat + Lapatinib; first compound 0.08 µM): 1.04
- relative viability (Ricolinostat + Lapatinib; first compound 0.253 µM): 0.976
- relative viability (Ricolinostat + Lapatinib; first compound 0.8 µM): 0.922
- relative viability (Ricolinostat + Lapatinib; first compound 2.53 µM): 0.713
- relative viability ([1]; first compound 0.08 µM): 0.836
- relative viability ([1]; first compound 0.253 µM): 0.753
- relative viability ([1]; first compound 0.8 µM): 0.774
- relative viability ([1]; first compound 2.53 µM): 0.592
- relative viability (TGX 221 + Bortezomib; first compound 0.08 µM): 0.951
- relative viability (TGX 221 + Bortezomib; first compound 0.253 µM): 0.935
- relative viability (TGX 221 + Bortezomib; first compound 0.8 µM): 0.945
- relative viability (TGX 221 + Bortezomib; first compound 2.53 µM): 0.851
- relative viability (TGX 221 + Bortezomib; first compound 8 µM): 0.997

Cell Line: HCC-78
- relative viability (Ricolinostat + Lapatinib; first compound 0.253 µM): 0.803
- relative viability (Ricolinostat + Lapatinib; first compound 0.8 µM): 0.699
- relative viability (Ricolinostat + Lapatinib; first compound 2.53 µM): 0.385
- relative viability (Ricolinostat + Foretinib; first compound 0.253 µM): 0.526
- relative viability (Ricolinostat + Foretinib; first compound 0.8 µM): 0.553
- relative viability (Ricolinostat + Foretinib; first compound 2.53 µM): 0.427
- relative viability ([1]; first compound 0.253 µM): 0.288
- relative viability ([1]; first compound 0.8 µM): 0.279
- relative viability ([1]; first compound 2.53 µM): 0.25
- relative viability (TGX 221 + Bortezomib; first compound 0.08 µM): 0.435
- relative viability (TGX 221 + Bortezomib; first compound 0.253 µM): 0.38
- relative viability (TGX 221 + Bortezomib; first compound 0.8 µM): 0.429
- relative viability (TGX 221 + Bortezomib; first compound 2.53 µM): 0.24
- relative viability (TGX 221 + Bortezomib; first compound 8 µM): 0.335

Cell Line: HCC-366
- relative viability (Ricolinostat + Lapatinib; first compound 0.08 µM): 1.02
- relative viability (Ricolinostat + Lapatinib; first compound 0.253 µM): 1.02
- relative viability (Ricolinostat + Lapatinib; first compound 0.8 µM): 0.918
- relative viability (Ricolinostat + Lapatinib; first compound 2.53 µM): 0.363
- relative viability (Ricolinostat + Foretinib; first compound 0.08 µM): 0.915
- relative viability (Ricolinostat + Foretinib; first compound 0.253 µM): 0.837
- relative viability (Ricolinostat + Foretinib; first compound 0.8 µM): 0.975
- relative viability (Ricolinostat + Foretinib; first compound 2.53 µM): 0.817
- relative viability ([1]; first compound 0.08 µM): 0.49
- relative viability ([1]; first compound 0.253 µM): 0.464
- relative viability ([1]; first compound 0.8 µM): 0.428
- relative viability ([1]; first compound 2.53 µM): 0.188
- relative viability (TGX 221 + Bortezomib; first compound 0.08 µM): 0.863
- relative viability (TGX 221 + Bortezomib; first compound 0.253 µM): 1.03
- relative viability (TGX 221 + Bortezomib; first compound 0.8 µM): 1.12
- relative viability (TGX 221 + Bortezomib; first compound 2.53 µM): 0.99
- relative viability (TGX 221 + Bortezomib; first compound 8 µM): 1.09

Cell Line: HCC-827
- relative viability (Ricolinostat + Lapatinib; first compound 0.08 µM): 0.173
- relative viability (Ricolinostat + Lapatinib; first compound 0.253 µM): 0.184
- relative viability (Ricolinostat + Lapatinib; first compound 0.8 µM): 0.173
- relative viability (Ricolinostat + Lapatinib; first compound 2.53 µM): 0.155
- relative viability (Ricolinostat + Foretinib; first compound 0.08 µM): 0.998
- relative viability (Ricolinostat + Foretinib; first compound 0.253 µM): 1.06
- relative viability (Ricolinostat + Foretinib; first compound 0.8 µM): 1.04
- relative viability (Ricolinostat + Foretinib; first compound 2.53 µM): 0.964
- relative viability ([1]; first compound 0.08 µM): 0.827
- relative viability ([1]; first compound 0.253 µM): 0.956
- relative viability ([1]; first compound 0.8 µM): 0.841
- relative viability ([1]; first compound 2.53 µM): 0.846
- relative viability (TGX 221 + Bortezomib; first compound 0.08 µM): 0.981
- relative viability (TGX 221 + Bortezomib; first compound 0.253 µM): 1.06
- relative viability (TGX 221 + Bortezomib; first compound 0.8 µM): 1.07
- relative viability (TGX 221 + Bortezomib; first compound 2.53 µM): 1.17
- relative viability (TGX 221 + Bortezomib; first compound 8 µM): 1.07

Cell Line: HOP-62
- relative viability (Ricolinostat + Lapatinib; first compound 0.08 µM): 0.935
- relative viability (Ricolinostat + Lapatinib; first compound 0.253 µM): 0.88
- relative viability (Ricolinostat + Lapatinib; first compound 0.8 µM): 0.923
- relative viability (Ricolinostat + Lapatinib; first compound 2.53 µM): 0.843
- relative viability (Ricolinostat + Foretinib; first compound 0.08 µM): 1
- relative viability (Ricolinostat + Foretinib; first compound 0.253 µM): 1.03
- relative viability (Ricolinostat + Foretinib; first compound 0.8 µM): 1
- relative viability (Ricolinostat + Foretinib; first compound 2.53 µM): 1.09
- relative viability ([1]; first compound 0.08 µM): 0.912
- relative viability ([1]; first compound 0.253 µM): 0.855
- relative viability ([1]; first compound 0.8 µM): 0.924
- relative viability ([1]; first compound 2.53 µM): 0.87
- relative viability (TGX 221 + Bortezomib; first compound 0.08 µM): 0.605
- relative viability (TGX 221 + Bortezomib; first compound 0.253 µM): 0.85
- relative viability (TGX 221 + Bortezomib; first compound 0.8 µM): 0.788
- relative viability (TGX 221 + Bortezomib; first compound 2.53 µM): 0.847
- relative viability (TGX 221 + Bortezomib; first compound 8 µM): 0.93

Cell Line: IA-LM
- relative viability (Ricolinostat + Lapatinib; first compound 0.253 µM): 0.841
- relative viability (Ricolinostat + Lapatinib; first compound 0.8 µM): 0.542
- relative viability (Ricolinostat + Lapatinib; first compound 2.53 µM): 0.398
- relative viability (Ricolinostat + Foretinib; first compound 0.08 µM): 0.959
- relative viability (Ricolinostat + Foretinib; first compound 0.253 µM): 1.01
- relative viability (Ricolinostat + Foretinib; first compound 0.8 µM): 1.09
- relative viability (Ricolinostat + Foretinib; first compound 2.53 µM): 0.932
- relative viability ([1]; first compound 0.253 µM): 0.763
- relative viability ([1]; first compound 0.8 µM): 0.784
- relative viability ([1]; first compound 2.53 µM): 0.578
- relative viability (TGX 221 + Bortezomib; first compound 0.08 µM): 0.915
- relative viability (TGX 221 + Bortezomib; first compound 0.253 µM): 1.02
- relative viability (TGX 221 + Bortezomib; first compound 0.8 µM): 1.04
- relative viability (TGX 221 + Bortezomib; first compound 2.53 µM): 0.869
- relative viability (TGX 221 + Bortezomib; first compound 8 µM): 0.735

Cell Line: LC-2-ad
- relative viability (Ricolinostat + Lapatinib; first compound 0.08 µM): 0.883
- relative viability (Ricolinostat + Lapatinib; first compound 0.253 µM): 0.943
- relative viability (Ricolinostat + Lapatinib; first compound 0.8 µM): 0.98
- relative viability (Ricolinostat + Lapatinib; first compound 2.53 µM): 0.678
- relative viability (Ricolinostat + Foretinib; first compound 0.08 µM): 0.747
- relative viability (Ricolinostat + Foretinib; first compound 0.253 µM): 0.874
- relative viability (Ricolinostat + Foretinib; first compound 0.8 µM): 0.886
- relative viability (Ricolinostat + Foretinib; first compound 2.53 µM): 0.761
- relative viability ([1]; first compound 0.253 µM): 0.44
- relative viability ([1]; first compound 0.8 µM): 0.445
- relative viability ([1]; first compound 2.53 µM): 0.484
- relative viability (TGX 221 + Bortezomib; first compound 0.08 µM): 0.978
- relative viability (TGX 221 + Bortezomib; first compound 0.8 µM): 1.07
- relative viability (TGX 221 + Bortezomib; first compound 2.53 µM): 1.05
- relative viability (TGX 221 + Bortezomib; first compound 8 µM): 0.928
